Experiments:
Type in all cases: in vivo
[1] = system: KK-Ay/Ta Jcl mice of a type 2 diabetic model; test: Example 1: non-fasting blood-sugar level in mice fed CE-2 feed with 1% by weight of test substance
Source text: (§1) KK-Ay/Ta Jcl mice (Clea Japan, Inc.; male; six weeks age) (15 mice) of a type 2 diabetic model were divided into three groups each comprising five mice and named group 1 to group 3.
(§2) The mice of the groups 1 to 3 were made free to take feed and water. A commercially available feed CE-2 (manufactured by Clea Japan, Inc.) was ingested to the mice of group 1. CE-2 to which 1% by weight of trans-4-hydroxy-L-proline (manufactured by Kyowa Hakko Kogyo; hereinafter, abbreviated as hydroxyproline) was added was ingested to the mice of group 2. CE-2 to which 1% by weight of trans-N-acetyl-4-hydroxy-L-proline (manufactured by Kyowa Hakko Kogyo; hereinafter, abbreviated as N-acetylhydroxyproline) was added was ingested to the mice of group 3.
(§3) On the initial day of the test and on the 17th day thereafter, blood was collected from tail vein and blood-sugar level upon non-fasting was measured by a Medisafe Reader GR-101 (manufactured by Thermo Co.). The mice were fasted for 18 hours during the 17th day to the 18th day after the start of the test and whole blood was collected from descending vena cava to prepare serum. The serum-insulin level was measured by a Levi Insulin Kit Mouse-T (manufactured by Shibayagi). The value was shown by mean value±standard error (n=5) and statistic ratio of risk (p value) was determined by a t-test. With regard to the ingested amounts during the test periods, there was no significant difference among the groups 1 to 3.

[2] = system: GK/Jcl rats of a type 2 diabetic model; test: Example 4: blood-sugar level after single oral administration in rats; settings: 1,000 mg/kg B.W. oral
Experimental: GK/Jcl rats (Clea Japan, Inc; male; nine weeks age) (12 mice) of a type 2 diabetic model were divided into two groups each comprising six mice and named group 1 and group 2.
Five ml/kg B.W. of a solvent (0.5% (w/v) methyl cellulose #400) was orally administered to the rats of the group 1. A 200 mg/ml solution of the hydroxyproline in the same solvent was orally administered to the rats of the group 2 so as to make the amount of administration 1,000 mg/kg B.W. Blood was collected from tail vein upon administration of the solvent or the hydroxyproline solution (0 minute) and 30 minutes, 60 minutes and 120 minutes after the administration and blood-sugar levels were measured by a Medisafe Reader GR-101. The value was shown by mean value±standard error (n=6) and statistic ratio of risk (p value) was determined by a t-test.

[3] = system: GK/Jcl rats of a type 2 diabetic model; test: Example 5: blood-sugar level after oral glucose load in fasted rats; settings: for Blood-Sugar Level, 30 min: 30 minutes after glucose 2 g/kg; for Blood-Sugar Level, 30 min / Blood-Sugar Level, −30 min / Blood-Sugar Level, 60 min / Blood-Sugar Level, 120 min / Blood-Sugar Level, 0 min: n=6; for Blood-Sugar Level, −30 min: 30 minutes before glucose 2 g/kg (baseline, at dosing), mean ± standard error; for Blood-Sugar Level, 60 min: 60 minutes after glucose 2 g/kg; for Blood-Sugar Level, 120 min: 120 minutes after glucose 2 g/kg; for Blood-Sugar Level, 0 min: upon glucose administration 2 g/kg
Experimental: GK/Jcl rats (Clea Japan, Inc.; male; nine weeks age) (18 mice) of a type 2 diabetic model were divided into three groups each comprising six mice and named groups 1 to 3.
After fasting for 18 hours, 5 ml/kg B.W. of a solvent (0.5% (w/v) methyl cellulose #400) was orally administered to the rats of the group 1. A 60 mg/ml solution of the hydroxyproline in the same solvent was orally administered to the rats of the group 2 so as to make the amount of administration 300 mg/kg B.W. A 200 mg/ml solution of the hydroxyproline in the same solvent was orally administered to the rats of the group 3 so as to make the amount of administration 1,000 mg/kg B.W. After 30 minutes from the oral administration, 2 g/kg B.W. of a 20% (w/v) aqueous solution of glucose was orally administered to the mice of the groups 1 to 3 to load with sugar. Blood was collected from tail vein 30 minutes before the administration of the aqueous glucose solution (−30 minutes), upon the administration (0 minute) and 30 minutes, 60 minutes and 120 minutes after the administration and blood-sugar levels were measured by a Medisafe Reader GR-101.
The value was shown by mean value±standard error (n=6) and statistic ratio of risk (p value) between the groups 1 and 2 and that between the groups 1 and 3 was determined by a one-way layout dispersion analysis and by a Dunnett test.

[4] = system: KK-Ay/Ta Jcl mice of a type 2 diabetic model; test: Example 1: serum-insulin level after 18 hours fasting in mice fed CE-2 feed with 1% by weight of test substance
Source text: as §1, §2, §3

O=C(O)[C@@H]1C[C@@H](O)CN1 [hydroxyproline, trans-4-hydroxy-L-proline]
antidiabetic action (conclusion from Table 1) ([1]; 17 days): antidiabetic action | Blood-Sugar Level, 17th Day of the Test ([1]; non-fasting, tail vein blood, 17th day, mean ± standard error, n=5): 260.4 ± 10.8 mg/dL | Blood-Sugar Level, Initial Day of the Test ([1]; non-fasting, tail vein blood, initial day (baseline), mean ± standard error, n=5): 243.0 ± 12.2 mg/dL | antidiabetic action (conclusion from Table 6) [2]: antidiabetic action | Blood-Sugar Level, 30 min ([2]; 30 minutes after administration, mean ± standard error, n=6): 220.3 ± 13.8 mg/dL | Blood-Sugar Level, 60 min ([2]; 60 minutes after administration, mean ± standard error, n=6): 189.5 ± 10.9 mg/dL | Blood-Sugar Level, 120 min ([2]; 120 minutes after administration, mean ± standard error, n=6): 156.0 ± 6.8 mg/dL | Blood-Sugar Level, 0 min ([2]; upon administration (baseline), mean ± standard error, n=6): 189.2 ± 8.4 mg/dL | Blood-Sugar Level, 30 min ([3]; 300 mg/kg B.W. oral): 269.5 ± 15.3 mg/dL | Blood-Sugar Level, −30 min ([3]; 300 mg/kg B.W. oral): 113.3 ± 2.7 mg/dL | Blood-Sugar Level, 60 min ([3]; 300 mg/kg B.W. oral): 298.2 ± 7.5 mg/dL | Blood-Sugar Level, 120 min ([3]; 300 mg/kg B.W. oral): 207.5 ± 6.3 mg/dL | Blood-Sugar Level, 0 min ([3]; 300 mg/kg B.W. oral): 144.2 ± 7.2 mg/dL | Blood-Sugar Level, 30 min ([3]; 1,000 mg/kg B.W. oral): 226.2 ± 3.0 mg/dL | Blood-Sugar Level, −30 min ([3]; 1,000 mg/kg B.W. oral): 112.2 ± 3.3 mg/dL | Blood-Sugar Level, 60 min ([3]; 1,000 mg/kg B.W. oral): 247.3 ± 4.4 mg/dL | Blood-Sugar Level, 120 min ([3]; 1,000 mg/kg B.W. oral): 181.2 ± 7.3 mg/dL | Blood-Sugar Level, 0 min ([3]; 1,000 mg/kg B.W. oral): 137.0 ± 6.6 mg/dL | antidiabetic action (conclusion from Table 7) ([3]; 300 and 1,000 mg/kg B.W. oral, glucose load): dose-dependent antidiabetic-action | antidiabetic action by improving insulin resistance (conclusion from Tables 1 and 2) [4]: show an antidiabetic action by improving the insulin resistance | Serum-Insulin Level ([4]; 18th day after 18 hours fasting, mean ± standard error, n=5): 1.01 ± 0.08 ng/mL
